Laboratory results published in PMC11392244, “Characterization of a unique catechol-O-methyltransferase as a molecular drug target in parasitic filarial nematodes” (PLOS Neglected Tropical Diseases, 2024).
Values joined by “and” are separate entries in the source; they are usually repeats but may differ in a detail not shown here. Equal values may be shown once.

Key:
[1] = tested on: D. immitis microfilariae; test: In vitro efficacy against live D. immitis microfilariae (motility, completely immotile %); format: cell-based, Dirofilaria immitis
[2] = tested on: mammalian cells; conditions: read-out: Cytotoxicity IC50, ref Tan et al., [31]; cited from earlier work

Ivermectin [reference compound]
Completely Immotile Microfilariae (%) ([1]; 2.5 µM, 0 h): 0% | Mean completely Immotile (%) ([1]; 2.5 µM, 0 h): 0% | Completely Immotile Microfilariae (%) ([1]; 2.5 µM, 24 h): 1% and 2% | Mean completely Immotile (%) ([1]; 2.5 µM, 24 h): 1.7% | Completely Immotile Microfilariae (%) ([1]; 2.5 µM, 48 h): 1.5% and 2.5% and 2% | Mean completely Immotile (%) ([1]; 2.5 µM, 48 h): 2.0% | Completely Immotile Microfilariae (%) ([1]; 2.5 µM, 72 h): 2% and 2.5% and 3% | Mean completely Immotile (%) ([1]; 2.5 µM, 72 h): 2.5% | Completely Immotile Microfilariae (%) ([1]; 2.5 µM, 90 h): 3% and 4% and 4.5% | Mean completely Immotile (%) ([1]; 2.5 µM, 96 h): 3.8% | Completely Immotile Microfilariae (%) ([1]; 2.5 µM, 120 h): 5% and 5.5% and 7% | Mean completely Immotile (%) ([1]; 2.5 µM, 120 h): 5.83% | Mean completely Immotile (%) ([1]; 5 µM, 0 h): 0% | Completely Immotile Microfilariae (%) ([1]; 5.0 µM, 0 h): 0% | Mean completely Immotile (%) ([1]; 5 µM, 24 h): 2.3% | Completely Immotile Microfilariae (%) ([1]; 5.0 µM, 24 h): 2% and 3% | Mean completely Immotile (%) ([1]; 5 µM, 48 h): 3.7% | Completely Immotile Microfilariae (%) ([1]; 5.0 µM, 48 h): 3% and 4% | Mean completely Immotile (%) ([1]; 5 µM, 72 h): 5.0% | Completely Immotile Microfilariae (%) ([1]; 5.0 µM, 72 h): 5% and 4.5% and 5.5% | Completely Immotile Microfilariae (%) ([1]; 5.0 µM, 90 h): 7.5% and 7% and 8.5% | Mean completely Immotile (%) ([1]; 5 µM, 96 h): 7.7% | Mean completely Immotile (%) ([1]; 5 µM, 120 h): 15.0% | Completely Immotile Microfilariae (%) ([1]; 5.0 µM, 120 h): 15% and 12.5% and 17.5% | Completely Immotile Microfilariae (%) ([1]; 10 µM, 0 h): 0% | Mean completely Immotile (%) ([1]; 10 µM, 0 h): 0% | Completely Immotile Microfilariae (%) ([1]; 10 µM, 24 h): 3% and 4% | Mean completely Immotile (%) ([1]; 10 µM, 24 h): 3.3% | Completely Immotile Microfilariae (%) ([1]; 10 µM, 48 h): 5% and 6% | Mean completely Immotile (%) ([1]; 10 µM, 48 h): 5.7% | Completely Immotile Microfilariae (%) ([1]; 10 µM, 72 h): 7.5% and 8.5% | Mean completely Immotile (%) ([1]; 10 µM, 72 h): 7.8% | Completely Immotile Microfilariae (%) ([1]; 10.0 µM, 90 h): 25% and 28.5% and 30% | Mean completely Immotile (%) ([1]; 10 µM, 96 h): 27.8% | Completely Immotile Microfilariae (%) ([1]; 10 µM, 120 h): 50% and 53.5% and 53% | Mean completely Immotile (%) ([1]; 10 µM, 120 h): 52.2% | Mean completely Immotile (%) ([1]; 15 µM, 0 h): 0% | Completely Immotile Microfilariae (%) ([1]; 15.0 µM, 0 h): 0% | Mean completely Immotile (%) ([1]; 15 µM, 24 h): 3.8% | Completely Immotile Microfilariae (%) ([1]; 15.0 µM, 24 h): 3.5% and 4.5% | Mean completely Immotile (%) ([1]; 15 µM, 48 h): 6.2% | Completely Immotile Microfilariae (%) ([1]; 15.0 µM, 48 h): 6% and 6.7% | Mean completely Immotile (%) ([1]; 15 µM, 72 h): 11.0% | Completely Immotile Microfilariae (%) ([1]; 15.0 µM, 72 h): 10% and 12% and 11% | Completely Immotile Microfilariae (%) ([1]; 15.0 µM, 90 h): 30% and 37% and 33% | Mean completely Immotile (%) ([1]; 15 µM, 96 h): 33.3% | Mean completely Immotile (%) ([1]; 15 µM, 120 h): 72.3% | Completely Immotile Microfilariae (%) ([1]; 15.0 µM, 120 h): 70% and 75% and 72% | Mean completely Immotile (%) ([1]; 20 µM, 0 h): 0% | Completely Immotile Microfilariae (%) ([1]; 20.0 µM, 0 h): 0% | Mean completely Immotile (%) ([1]; 20 µM, 24 h): 11.2% | Completely Immotile Microfilariae (%) ([1]; 20.0 µM, 24 h): 10% and 12.5% and 11% | Mean completely Immotile (%) ([1]; 20 µM, 48 h): 15.7% | Completely Immotile Microfilariae (%) ([1]; 20.0 µM, 48 h): 15% and 17% | Mean completely Immotile (%) ([1]; 20 µM, 72 h): 26.0% | Completely Immotile Microfilariae (%) ([1]; 20.0 µM, 72 h): 25% and 30% and 23% | Completely Immotile Microfilariae (%) ([1]; 20.0 µM, 90 h): 50% and 65% and 49% | Mean completely Immotile (%) ([1]; 20 µM, 96 h): 54.7% | Mean completely Immotile (%) ([1]; 20 µM, 120 h): 90.3% | Completely Immotile Microfilariae (%) ([1]; 20.0 µM, 120 h): 90% and 94% and 87% | Mean completely Immotile (%) ([1]; 30 µM, 0 h): 0% | Completely Immotile Microfilariae (%) ([1]; 30.0 µM, 0 h): 0% | Mean completely Immotile (%) ([1]; 30 µM, 24 h): 27.7% | Completely Immotile Microfilariae (%) ([1]; 30.0 µM, 24 h): 25% and 30% and 28% | Mean completely Immotile (%) ([1]; 30 µM, 48 h): 43.0% | Completely Immotile Microfilariae (%) ([1]; 30.0 µM, 48 h): 40% and 46% and 43% | Mean completely Immotile (%) ([1]; 30 µM, 72 h): 56.0% | Completely Immotile Microfilariae (%) ([1]; 30.0 µM, 72 h): 50% and 60% and 58% | Completely Immotile Microfilariae (%) ([1]; 30.0 µM, 90 h): 80% and 85% and 88% | Mean completely Immotile (%) ([1]; 30 µM, 96 h): 84.3% | Mean completely Immotile (%) ([1]; 30 µM, 120 h): 95.3% | Completely Immotile Microfilariae (%) ([1]; 30.0 µM, 120 h): 95% and 98% and 93% | EC50 ([1]; read-out: Anti-parasitic EC50): 17.6 µM | IC50 [2]: 37.4 µM
